# Test results: patent US20050233467A1, “Visible wavelength fluorescent calcium indicators that are (i) leakage resistant and (ii) operate near membranes” (priority 2004, published 2005)
# Test system: myocytes of mouse small mesenteric arteries
# Assay: Localization of dye in walls of mouse small mesenteric arteries (imaging)
# Format: cell-based
# Settings: mouse small mesenteric artery wall, activated cells
# Source text: The plane is tangential to the artery, very close to the coverslip. The spindle-shaped cells run horizontally, the artery lumen runs vertically. […] The FLUO-MOMO images are quite bright because the cells have been activated and [Ca^2+] cyt has risen. […] (Photo courtesy of Dr. Blaustein of The University of Maryland Medical School.)
compound,measurement,value
CCN(CC)c1ccc(/C=C/C=C/C=C/c2cc[n+](CCC[N+](CC)(CC)CC)cc2)cc1.[Br-].[Br-] [FM4-64],localization of dye in the cell,localizes to the plasma membrane
